This test deals with Autotaxin (Homo sapiens, UniProt Q13822). In words: Inhibition of human recombinant ATX lysophospholipase activity expressed in insect sf9 cells using FS-3 fluorogenic substrate preincubated for 10 mins measured after 5 and 25 mins by fluorometric analysis.

Turning to `CCCCCCCCCC(=O)Nc1ccc(C(O)P(=O)(O)O)cc1` (configuration not stated), the Ki came out at 24 nM.

As to `CCCCCCCCCCCCCC(=O)Nc1ccc(C(O)P(=O)(O)O)cc1` (configuration not stated), the Ki came out at 24 nM.

As usually defined, the Ki is the dissociation constant of the complex between target and ligand, obtained from inhibition or displacement.

Source of the values: BindingDB's records for doi:10.1016/j.bmcl.2011.03.068 (The University of Utah, 2011).
